Test results: ChEMBL document CHEMBL4411307, “N,N'-diaryl-bishydrazones in a biphenyl platform: Broad spectrum antifungal agents” (Eur J Med Chem, 2019)
In brackets after ≈: the same amount, converted by molar mass. Activity calls are given as the source filed them. The calls are words filed in the database; no cut-off is given here.

Legend:
[1] = Selectivity index, ratio of CC50 for human A549 cells to MIC for fluconazole/ITC-resistant Candida albicans ATCC MYA-1003; assay type: toxicity; settings: read-out: Selectivity Index
BEAS-2B = experiment: Cytotoxicity against human BEAS2B cells after 24 hrs by resazurin based assay; assay type: cell-based
[2] = Selectivity index, ratio of compound concentration showing <20 to <30% hemolysis in mouse RBC to MIC for fluconazole/ITC-resistant Candida albicans ATCC 64124; assay type: toxicity; settings: red blood cells (erythrocytes), read-out: Selectivity Index
[3] = Hemolytic activity in mouse RBC at 31.3 ug/ml after 1 hr relative to control; assay type: ADME, cell-based, Erythrocyte; settings: red blood cells (erythrocytes), read-out: Activity
[4] = Selectivity index, ratio of CC50 for human A549 cells to MIC for Aspergillus terreus ATCC MYA-3633; assay type: toxicity; settings: read-out: Selectivity Index
Pichia kudriavzevii = experiment: Antifungal activity against Candida krusei ATCC 6258 measured after 48 hrs by CLSI M27-A3 protocol based method; assay type: functional; settings: ATCC 6258, 48 h
Aspergillus nidulans = experiment: Antifungal activity against Aspergillus nidulans ATCC 38163 measured after 48 hrs by CLSI M38-A2 protocol based method; assay type: functional; settings: ATCC 38163, 48 h
[5] = Selectivity index, ratio of CC50 for human A549 cells to MIC for fluconazole/ITC-resistant Candida albicans ATCC 10231; assay type: toxicity; settings: read-out: Selectivity Index
[6] = Selectivity index, ratio of CC50 for human A549 cells to MIC for Aspergillus nidulans ATCC 38163; assay type: toxicity; settings: read-out: Selectivity Index
[7] = Selectivity index, ratio of compound concentration showing <20 to <30% hemolysis in mouse RBC to MIC for Candida parapsilosis ATCC 22019; assay type: toxicity; settings: mouse red blood cells (RBC), read-out: Selectivity Index
Candida albicans [8] = experiment: Antifungal activity against fluconazole/ITC-susceptible Candida albicans ATCC MYA-2876 measured after 48 hrs by CLSI M27-A3 protocol based method; assay type: functional; settings: ATCC MYA-2876, 48 h
Candida albicans [9] = experiment: Antifungal activity against fluconazole/ITC-resistant Candida albicans ATCC MYA-1237 measured after 48 hrs by CLSI M27-A3 protocol based method; assay type: functional; settings: ATCC MYA-1237, 48 h
[10] = Selectivity index, ratio of compound concentration showing <20 to <30% hemolysis in mouse RBC to MIC for fluconazole/ITC-resistant Candida albicans ATCC 90819; assay type: toxicity; settings: red blood cells (erythrocytes), read-out: Selectivity Index
[11] = Hemolytic activity in mouse RBC at 62.5 ug/ml after 1 hr relative to control; assay type: ADME, cell-based, Erythrocyte; settings: red blood cells (erythrocytes), read-out: Activity
A549 = experiment: Cytotoxicity against human A549 cells after 24 hrs by resazurin based assay; assay type: cell-based; settings: a549, 24 h
[12] = Selectivity index, ratio of CC50 for human A549 cells to MIC for Candida parapsilosis ATCC 22019; assay type: toxicity; settings: read-out: Selectivity Index
Candida albicans [13] = experiment: Antifungal activity against fluconazole/ITC-resistant Candida albicans ATCC 64124 measured after 48 hrs by CLSI M27-A3 protocol based method; assay type: functional; settings: ATCC 64124, 48 h
Candida albicans [14] = experiment: Antifungal activity against fluconazole/ITC-resistant Candida albicans ATCC 10231 measured after 48 hrs by CLSI M27-A3 protocol based method; assay type: functional; settings: ATCC 10231, 48 h
Nakaseomyces glabratus = experiment: Antifungal activity against Candida glabrata ATCC 2001 measured after 48 hrs by CLSI M27-A3 protocol based method; assay type: functional; settings: CBS 138, 48 h
[15] = Selectivity index, ratio of CC50 for human A549 cells to MIC for Candida glabrata ATCC 2001; assay type: toxicity; settings: read-out: Selectivity Index
Enterococcus = experiment: Antibacterial activity against vancomycin-resistant Enterococcus; assay type: functional, organism-based
[16] = Selectivity index, ratio of CC50 for human A549 cells to MIC for Candida krusei ATCC 6258; assay type: toxicity; settings: read-out: Selectivity Index
[17] = Selectivity index, ratio of compound concentration showing <20 to <30% hemolysis in mouse RBC to MIC for fluconazole/ITC-resistant Candida albicans ATCC 10231; assay type: toxicity; settings: red blood cells (erythrocytes), read-out: Selectivity Index
Candida albicans [18] = experiment: Antifungal activity against fluconazole/ITC-resistant Candida albicans ATCC 90819 measured after 48 hrs by CLSI M27-A3 protocol based method; assay type: functional; settings: ATCC 90819, 48 h
[19] = Selectivity index, ratio of compound concentration showing <20 to <30% hemolysis in mouse RBC to MIC for Aspergillus flavus ATCC MYA-3631; assay type: toxicity; settings: mouse red blood cells (RBC), read-out: Selectivity Index
[20] = Selectivity index, ratio of compound concentration showing <20 to <30% hemolysis in mouse RBC to MIC for Aspergillus nidulans ATCC 38163; assay type: toxicity; settings: mouse red blood cells (RBC), read-out: Selectivity Index
[21] = Hemolytic activity in mouse RBC at 3.9 ug/ml after 1 hr relative to control; assay type: ADME, cell-based, Erythrocyte; settings: red blood cells (erythrocytes), read-out: Activity
Listeria monocytogenes = experiment: Antibacterial activity against Listeria monocytogenes; assay type: functional, organism-based
[22] = Selectivity index, ratio of CC50 for human A549 cells to MIC for fluconazole/ITC-susceptible Candida albicans ATCC MYA-2876; assay type: toxicity; settings: read-out: Selectivity Index
[23] = Selectivity index, ratio of compound concentration showing <20 to <30% hemolysis in mouse RBC to MIC for Aspergillus terreus ATCC MYA-3633; assay type: toxicity; settings: mouse red blood cells (RBC), read-out: Selectivity Index
[24] = Hemolytic activity in mouse RBC at 7.8 ug/ml after 1 hr relative to control; assay type: ADME, cell-based, Erythrocyte; settings: red blood cells (erythrocytes), read-out: Activity
[25] = Selectivity index, ratio of compound concentration showing <20 to <30% hemolysis in mouse RBC to MIC for Candida glabrata ATCC 2001; assay type: toxicity; settings: mouse red blood cells (RBC), read-out: Selectivity Index
[26] = Selectivity index, ratio of compound concentration showing <20 to <30% hemolysis in mouse RBC to MIC for fluconazole/ITC-susceptible Candida albicans ATCC MYA-2310; assay type: toxicity; settings: mouse red blood cells (RBC), read-out: Selectivity Index
[27] = Selectivity index, ratio of compound concentration showing <20 to <30% hemolysis in mouse RBC to MIC for Candida krusei ATCC 6258; assay type: toxicity; settings: mouse red blood cells (RBC), read-out: Selectivity Index
Staphylococcus aureus = experiment: Antibacterial activity against methicillin-resistant Staphylococcus aureus; assay type: functional, organism-based
[28] = Hemolytic activity in mouse RBC at […] after 1 hr relative to control; assay type: ADME, cell-based, Erythrocyte; settings: red blood cells (erythrocytes), read-out: Activity; further: tested at 0.48 µg/mL
Aspergillus terreus = experiment: Antifungal activity against Aspergillus terreus ATCC MYA-3633 measured after 48 hrs by CLSI M38-A2 protocol based method; assay type: functional; settings: ATCC MYA-3633, 48 h
[29] = Selectivity index, ratio of compound concentration showing <20 to <30% hemolysis in mouse RBC to MIC for fluconazole/ITC-resistant Candida albicans ATCC MYA-1003; assay type: toxicity; settings: mouse red blood cells (RBC), read-out: Selectivity Index
[30] = Selectivity index, ratio of CC50 for human A549 cells to MIC for fluconazole/ITC-resistant Candida albicans ATCC MYA-1237; assay type: toxicity; settings: read-out: Selectivity Index
[31] = Hemolytic activity in mouse RBC at […] ug/ml after 1 hr relative to control; assay type: ADME, cell-based, Erythrocyte; settings: red blood cells (erythrocytes), read-out: Activity
Aspergillus flavus = experiment: Antifungal activity against Aspergillus flavus ATCC MYA-3631 measured after 48 hrs by CLSI M38-A2 protocol based method; assay type: functional; settings: ATCC MYA-3631, 48 h
[32] = Hemolytic activity in mouse RBC at 1.95 ug/ml after 1 hr relative to control; assay type: ADME, cell-based, Erythrocyte; settings: red blood cells (erythrocytes), read-out: Activity
[33] = Selectivity index, ratio of compound concentration showing <20 to <30% hemolysis in mouse RBC to MIC for fluconazole/ITC-resistant Candida albicans ATCC MYA-1237; assay type: toxicity; settings: mouse red blood cells (RBC), read-out: Selectivity Index
[34] = Selectivity index, ratio of CC50 for human A549 cells to MIC for fluconazole/ITC-susceptible Candida albicans ATCC MYA-2310; assay type: toxicity; settings: read-out: Selectivity Index
Candida albicans [35] = experiment: Antifungal activity against fluconazole/ITC-resistant Candida albicans ATCC MYA-1003 measured after 48 hrs by CLSI M27-A3 protocol based method; assay type: functional; settings: ATCC MYA-1003, 48 h
Candida parapsilosis = experiment: Antifungal activity against Candida parapsilosis ATCC 22019 measured after 48 hrs by CLSI M27-A3 protocol based method; assay type: functional; settings: Lodderomyces parapsilosis, ATCC 22019, 48 h
[36] = Selectivity index, ratio of CC50 for human A549 cells to MIC for fluconazole/ITC-resistant Candida albicans ATCC 90819; assay type: toxicity; settings: read-out: Selectivity Index
[37] = Selectivity index, ratio of CC50 for human A549 cells to MIC for fluconazole/ITC-resistant Candida albicans ATCC 64124; assay type: toxicity; settings: read-out: Selectivity Index
[38] = Selectivity index, ratio of compound concentration showing <20 to <30% hemolysis in mouse RBC to MIC for fluconazole/ITC-susceptible Candida albicans ATCC MYA-2876; assay type: toxicity; settings: red blood cells (erythrocytes), read-out: Selectivity Index
Candida albicans [39] = experiment: Antifungal activity against fluconazole/ITC-susceptible Candida albicans ATCC MYA-2310 measured after 48 hrs by CLSI M27-A3 protocol based method; assay type: functional; settings: ATCC MYA-2310, 48 h

## Fc1cccc(N/N=C/c2ccc(-c3ccc(/C=N/Nc4cccc(F)c4)cc3)cc2)c1
[1]
  selectivity ratio: 1
BEAS-2B
  CC50: 16 mg/L (≈ 37.5 µM)
[2]
  selectivity ratio: 1 to 32
[3]
  hemolysis at 1 h, 31.3 ug/ml: 10.3%
[4]
  selectivity ratio: 1
Pichia kudriavzevii
  MIC: 15.6 mg/L (≈ 36.6 µM)
Aspergillus nidulans
  MIC: > 31.3 mg/L
[5]
  selectivity ratio: 4
[6]
  selectivity ratio: 1
[7]
  selectivity ratio: 1 to 32
Candida albicans [8]
  MIC: > 31.3 mg/L
Candida albicans [9]
  MIC: > 31.3 mg/L
[10]
  selectivity ratio: 1 to 32
[11]
  hemolysis at 1 h, 62.5 ug/ml: 13.6%
A549
  CC50: > 31 mg/L
[12]
  selectivity ratio: 8
Candida albicans [13]
  MIC: > 31.3 mg/L
Candida albicans [14]
  MIC: 7.8 mg/L (≈ 18.3 µM)
Nakaseomyces glabratus
  MIC: > 31.3 mg/L
[15]
  selectivity ratio: 1
Enterococcus
  Activity: inactive
[16]
  selectivity ratio: 2
[17]
  selectivity ratio: 1 to 32
Candida albicans [18]
  MIC: > 31.3 mg/L
[19]
  selectivity ratio: 1 to 32
[20]
  selectivity ratio: 1 to 32
[21]
  hemolysis at 1 h, 3.9 ug/ml: 3.2%
Listeria monocytogenes
  Activity: inactive
[22]
  selectivity ratio: 1
[23]
  selectivity ratio: 1 to 32
[24]
  hemolysis at 1 h, 7.8 ug/ml: 2.6%
[25]
  selectivity ratio: 1 to 32
[26]
  selectivity ratio: 1 to 32
[27]
  selectivity ratio: 1 to 32
Staphylococcus aureus
  Activity: inactive
[28]
  hemolysis at 1 h, […]: 0.2%
Aspergillus terreus
  MIC: > 31.3 mg/L
[29]
  selectivity ratio: 1 to 32
[30]
  selectivity ratio: 1
[31]; at 15.6 µg/mL
  hemolysis at 1 h, 15.6 ug/ml: 7.7%
[31]
  hemolysis at 1 h, 0.975 ug/ml: 0.8%
Aspergillus flavus
  MIC: 31.3 mg/L (≈ 73.4 µM)
[32]
  hemolysis at 1 h, 1.95 ug/ml: 0%
[33]
  selectivity ratio: 1 to 32
[34]
  selectivity ratio: 1
Candida albicans [35]
  MIC: > 31.3 mg/L
Candida parapsilosis
  MIC: 3.9 mg/L (≈ 9.14 µM)
[36]
  selectivity ratio: 1
[37]
  selectivity ratio: 1
[38]
  selectivity ratio: 1 to 32
Candida albicans [39]
  MIC: > 31.3 mg/L
